Experimental data taken from patent US20080044436A1, “Method for Screening and Compositions for Treating Cancers” (priority 2004, published 2008).

B1: TReP-132: Transcriptional Regulating Protein of 132 kDa, polypeptide comprising SEQ ID NO: 2; here expressed in cells from vectors (protein)
chain: MGDQQLYKTNHVAHGSENLFYQQPPLGVHSGLNHNYGNAVTGGGMDAPQASPISPHFPQDTRDGLGLPVGSKNLGQMDTSRQGGWGSHAGPGNHVQLRGNLANSNMMWGAPAQAEPTDGYQYTYSQASEIRTQKLTSGVLHKLDSFTQVFANQNLRIQVNNMAQVLHTQSAVMDGAPDSALRQLLSQKPMEPPAPAIPSRYQQVPQQPHPGFTGGLSKPALQVGQHPTQGHLYYDYQQPLAQVPVQGGQPLQAPQMLSQHMQQMQQHQYYPPQQQQQAGQQRISMQEIQTQPQQIRPSQPQPPPQQQQPQQLQLQQRQGSMQIPQYYQPQPMMQHLQEQQQQQMHLQPPSYHRDPHQYTPEQAHTVQLIPLGSMSQYYYQEPQQPYSHPLYQQSHLSQHQQREDSQLKTYSSDRQAQAMLSSHGDLGPPDTGMGDPASSDLTRVSSTLPHRPLLSPSGIHLNNMGPQHQQLSPSAMWPQMHLPDGRAQPGSPESSGQPKGAFGEQFDAKNKLTCSICLKEFKNLPALNGHMRSHGGMRASPNLKQEEGEKVLPPQPQPPLPPPPPPPPPPQLPPEAESLTPMVMPVSVPVKLLPPKPSSQGFTNSTVAAPSARDKPASSMSDDEMPVLEIPRKHQPSVPKAEEPLKTVQEKKKFRHRPEPLFIPPPPSYNPNPAASYSGATLYQSQLRSPRVLGDHLLLDPTHELPPYTPPPMLSPVRQGSGLFSNVLISGHGPGAHPQLPLTPLTPTPRVLLCRSNSIDGSNVTVTPGPGEQTVDVEPRINIGLRFQAEIPELQDISALAQDTHKATLVWKPWPELENHDLQQRVENLLNLCCSSALPGGGTNSEFALHSLFEAKGDVMVALEMLLLRKPVRLKCHPLANYHYAGSDKWTSLERKLFNKALATYSKDFIFVQKMVKSKTVAQCVEYYYTWKKIMRLGRKHRTRLAEIIDDCVTSEEEEELEEEEEEDPEEDRKSTKEEESEVPKSPEPPPVPVLAPTEGPPLQALGQPSGSFICEMPNCGAVFSSRQALNGHARIHGGTNQVTKARGAIPSGKQKPGGTQSGYCSVKSSPSHSTTSGETDPTTIFPCKECGKVFFKIKSRNAHMKTHRQQEEQQRQKAQKAAFAAEMAATIERTTGPVGAPGLLPLDQLSLIKPIKDVDILDDDVVQQLGGVMEEAEVVDTDLLLDDQDSVLLQGDAEL

Key:
[1] = test system: proximal Sp1 response element of the p21 and p27 promoters; test: Chromatin immunoprecipitation with anti-TReP-132 antibody in T47-D cells; assay type: cell-based, human; conditions: DNA from progesterone-treated vs untreated T47-D cells
Experimental: FIG. 14C: Chromatin was from T47-D cells treated or not with […] progesterone. IPs were carried out with anti-TReP-132 antibodies ([…]). Controls were DNA-free PCR products (column 1, H2O), PCR products of unprecipitated genomic DNA (columns 2 and 3, input), immunoprecipitations with no antibody (columns 4 and 5, no Ab) or with irrelevant antibody (columns 6 and 7, anti-HA). The extracted DNA was amplified using the same primers as in FIG. 13C.
HTO cells incubated in the presence of Dox or T47-D cells were grown to 70% confluence in petri dishes (150 mm diameter). For HTO cells, doxycycline was removed from half of the dishes 48 hours before lysis. T47-D cells were incubated with 30 nM progesterone or with ethanol containing 0.2% BSA-RPMI for 2.5 hours before lysis. Cell lysates were then sonicated on ice, 15 times for 15 seconds at 45 second intervals. A volume of lysate corresponding to 4×10^6 cells was immunoprecipitated by using 4 μg of antibody (indicated earlier) and an anti-HA antibody as negative control. The same volume was set aside for later purification of genomic DNA. […]

T47-D cells = test: T47-D cell proliferation (cell counts) with control or TReP-132 siRNA and progesterone; assay type: cell-based, human; conditions: T47-D transfected control cells, 30 nM progesterone, 4 to 6 days of treatment
Experimental: FIG. 3: Induction of TReP-132 by progesterone and suppression of progesterone inhibition of T47-D cell proliferation following TReP-132 knockdown by using small interfering RNA (“siRNA”). (T47-D cells were treated for the indicated times with 30 nM progesterone). Experiments were carried out in triplicate, and values represent the mean ±SD of a representative experiment.
FIG. 3B: Cells transfected with control siRNA or TReP-132 siRNA (400 ng) at 0 and 3 days were recovered at days 2, 4 or 6 and counted. (ns: not significant −*, p<0.05; **, […]; ***, p<0.001).
The sense 5′-[…]-3′ and the antisense 5′-[…]-3′ oligonucleotides were synthesized (Eurogentec) and used to generate double-stranded siRNA specific for TReP-132 (21 bp corresponding to amino acids 861-881 […] the initiation codon of the human TReP-132 gene). […] Transfection was carried out by using the GeneSilencer reagent (Gene Therapy Systems, San Diego, USA) as directed by the manufacturer. Transfection efficiency was verified by FACS analysis (Fluorescence-Activated Cell Sorting) (see below). […] Statistical analyses were carried out with the nonparametric Kruskal-Wallis test.

ER = test: GST pull-down, TReP-132 and ER; assay type: binding; conditions: GST pull-down with 35S-ER
Experimental: GST-TReP-132 wt was analyzed in terms of the interaction with the ^35[S]-ER, as described previously.
In order to evaluate the interaction of TReP-132, Sp1, ER and PR, the wt and mutant GST-TReP-132 fusion proteins were expressed, then immobilized on glutathione-Sepharose as described (Frangioni and Neel, 1993; Monte et al., 1998). The ^35S-[Sp1], ^35S-[ER] and ^35S-[PR-B] proteins were synthesized in vitro using a rabbit reticulocyte lysate and T7 RNA polymerase system as directed by the manufacturer (Promega Corporation, Madison, Wis.). Proteins which bound, then detached from the Sepharose after being heated to boiling in SDS buffer were then separated on a 10% SDS-PAGE gel. The gels were stained with Coomassie blue, dried and autoradiographed.

HeLa cells = test: Doubling time of reseeded HeLa colonies expressing exogenous TReP-132; assay type: cell-based, human; conditions: HeLa cells expressing TReP-132; control pcDNA3 cells 18 hours
Experimental: HeLa cells were seeded in 12-well plates at an initial density of 100,000 cells per well, incubated for 24 hours, then transfected with each of the following plasmids: pcDNA3, pcDNA3-Luc, pcDNA3-SF-1, or pcDNA3-TReP-132, each containing the neomycin resistance gene. The transfections were carried out in triplicate with ExGen 500 (MBI Fermentas, Flamborough, Ontario, Canada) at a ratio of 5 μl of ExGen 500 per 1 μg of plasmid. After 12 hours of transfection, the medium was changed and the cells were incubated for an additional 8 hours. The cells were then trypsinized and transferred to a 100 mm petri dish. After 48 hours, the medium was supplemented with 400 μg/ml of the selection agent G418 (Sigma-Aldrich CA Ltd.). Distinct colonies could be detected after two weeks of selection with G418. The cells were then rinsed with PBS and fixed with a mixture of 10% acetic acid/10% methanol for 15 min, then colored with crystal violet (Sigma-Aldrich CA Ltd.).
The cell proliferation rate was determined by the cellular DNA content using the fluorochorome DABA ([…]). […] Fluorescence was measured on a Perkin-Elmer LS-2B Filter Fluorimeter at an excitation wavelength of 400 nm and an emission wavelength of 508 nm. The DNA content was calculated from a standard curve of known quantities of salmon sperm DNA.

Molecule	TReP-132 binding to proximal Sp1 response element of p21 and p27 promoters [1]	cell proliferation (T47-D cells)	interaction with ER (ER)	doubling time (HeLa cells) [h]
CC(=O)[C@H]1CC[C@H]2[C@@H]3CCC4=CC(=O)CC[C@]4(C)[C@H]3CC[C@]12C [progesterone, reference compound]	much more pronounced	inhibited cell proliferation		
B1			interact	30
